Converted amounts (≈) assume the structure as drawn.
Tests used:
Format in all cases: cell-based
S. aureus = test: Bactericidal activity
E. faecalis = test: Bactericidal activity
E. faecium = test: Bactericidal activity
S. epidermidis = test: Bactericidal activity
S. pyogenes = test: Bactericidal activity
S. pneumoniae = test: Bactericidal activity
[1] = tested on: macrolide-, penicillin-, and levofloxacin-resistant S. pneumoniae; test: Antibacterial activity against drug-resistant strains
Experimental: (§1) Compounds of the present invention were tested for antibacterial activity against a variety of pathogenic organisms including S. aureus, S. pneumoniae, S. pyogenes, E. faecalis, H. influenza and M. catarrhalis using a standard broth microdilution method to determine their minimum inhibitory concentrations (MICs). All compounds were tested using standard methods in accordance with CLSI guidelines (Clinical and Laboratory Standards Institute). Compounds described in Examples 1-5, 7-12, 14, 16-17, 19-30, 32-35, 37-42, 44-66, 69, 71-76, 79-84, and 87 had MIC's of 0.25-4.0 μg/mL against some strains of the major Gram-positive organisms S. aureus, S. pneumoniae, S. pyogenes, and E. faecalis.
(§2) Compounds of the present invention were not compromised by existing resistance to all drug classes tested, including β-lactams, glycopeptides, oxazolidinones, macrolides, and fluoroquinolones. In particular, the compound described in Example 9 was active against methicillin- (oxacillin-) resistant S. aureus (MRSA), vancomycin-intermediate S. aureus (VISA), linezolid-resistant S. aureus, methicillin- (oxacillin-) resistant and mupirocin resistant S. epidermidis, macrolide-resistant S. pyogenes, macrolide-, penicillin-, and levofloxacin-resistant S. pneumoniae, vancomycin-, macrolide-, and ciprofloxacin-resistant E. faecalis (VRE) and vancomycin-, macrolide-, and ciprofloxacin-resistant E. faecium.

[2] = tested on: macrolide-resistant S. pyogenes; test: as above
Experimental: as §1, §2

[3] = tested on: methicillin- (oxacillin-) resistant and mupirocin resistant S. epidermidis; test: as above
Experimental: as §1, §2

[4] = tested on: resistant S. aureus (MRSA, VISA, linezolid-resistant); test: as above
Experimental: as §1, §2

[5] = tested on: vancomycin-, macrolide-, and ciprofloxacin-resistant E. faecalis (VRE); test: as above
Experimental: as §1, §2

[6] = tested on: vancomycin-, macrolide-, and ciprofloxacin-resistant E. faecium; test: as above
Experimental: as §1, §2

[7] = tested on: clinically relevant resistant strains; test: MIC in clinically relevant drug-resistant strains (all species together)
Experimental: as §1, §2

CCCS(=O)(=O)Cc1csc(NC(=O)NCc2ccc(Cl)c(Cl)c2)n1 [Example 9, 1-(3,4-dichlorobenzyl)-3-(4-(propylsulfonylmethyl)thiazol-2-yl)urea]
bactericidal effect (S. aureus): bactericidal
bactericidal effect (E. faecalis): bactericidal
bactericidal effect (E. faecium): bactericidal
bactericidal effect (S. epidermidis): bactericidal
bactericidal effect (S. pyogenes): bactericidal
bactericidal effect (S. pneumoniae): bactericidal
activity against resistant strain [1]: active
activity against resistant strain [2]: active
activity against resistant strain [3]: active
activity against resistant strain ([4]; linezolid-resistant S. aureus): active
activity against resistant strain ([4]; methicillin- (oxacillin-) resistant S. aureus (MRSA)): active
activity against resistant strain ([4]; vancomycin-intermediate S. aureus (VISA)): active
activity against resistant strain [5]: active
activity against resistant strain [6]: active
MIC ([7]; clinically relevant resistant strains): 0.5 to 4 µg/mL (≈ 1.18 to 9.47 µM)
MICs in sensitive versus drug resistant strains ([7]; sensitive versus drug resistant strains): comparable

Reference: patent US8293919B2, “Antibacterial sulfone and sulfoxide substituted heterocyclic urea compounds” (Crestone, Inc., priority 2007, dated 2012)
